Experimental findings from publication PMC5788402, “Impact of Target Warhead and Linkage Vector on Inducing Protein Degradation: Comparison of Bromodomain and Extra-Terminal (BET) Degraders Derived from Triazolodiazepine (JQ1) and Tetrahydroquinoline (I-BET726) BET Inhibitor Scaffolds” (Journal of Medicinal Chemistry, 2017) are described below.

Test [1] addresses VHL-EloC-EloB protein (VCB) (Homo sapiens, UniProt P40337). Briefly: ITC binary titration, VCB into PROTAC. The conditions noted are these: VCB in syringe, PROTAC in cell. The test is classed as binding.
The next test concerns the target Brd4^BD2 (Homo sapiens, UniProt O60885). In words: ITC binary titration, Brd4^BD2 into PROTAC. It counts as binding. The following applies: Brd4^BD2 in syringe, PROTAC in cell.
Another test deals with MV4;11 cells. In words: Cell viability assay (CellTiter-Glo), MV4;11. The test is classed as cell-based. The conditions noted are these: Homo sapiens, antiproliferative, 48 h treatment, error = quality of curve fitting, read-out: pEC50 MV4;11 (converted). (Cellular ATP, detected with luciferase, serves as a proxy for viable cell number.)
Test [2] has as its target VCB / Brd4^BD2 ternary complex (Homo sapiens, UniProt O60885+P40337). In words: ITC ternary titration, VCB into Brd4^BD2–PROTAC complex. The test is classed as binding. The conditions noted are these: for α: cooperativity, ratio between binary and ternary Kd; for α / ΔpKd ± uncertainty: Brd4^BD2; for cooperativity (α) Brd4–BD2: ternary complex formation with VCB and Brd4^BD2, as tabulated in Table 2; for ΔpKd ± uncertainty: ternary vs binary; for stoichiometry N / ΔG / ΔH / –TΔS: ternary, VCB in syringe, Brd4^BD2–PROTAC in cell.

For test [3], the target named is T1, Brd4 (Homo sapiens, UniProt O60885).
T1 construct: endogenous in cells; host or cells: MV4;11; HL60
In words: Brd4 depletion in HL60 (immunoblot). The test is classed as cell-based. The conditions noted are these: 50 nM, 4 h, HL60. Background: Immunoblotting shows a protein as a band on a membrane.

Another test deals with cMyc. Briefly: cMyc depletion in MV4;11 (immunoblot). It counts as cell-based. The conditions noted are these: 50 nM, 4 h.
For test [4], the target named is T1, Brd4. In words: Brd4 depletion in MV4;11 (immunoblot). It counts as cell-based. The following applies: 50 nM, 4 h.

Usually stoichiometry N stands for a count of units in the complex or per binding partner. Turning to `Cc1ncsc1-c1ccc(CNC(=O)[C@@H]2C[C@@H](O)CN2C(=O)[C@@H](NC(=O)COCCOCCOCCOCCNC(=O)C[C@@H]2N=C(c3ccc(Cl)cc3)c3c(sc(C)c3C)-n3c(C)nnc32)C(C)(C)C)cc1` [compound 7], in test [1], the “stoichiometry N” value is on record as 0.76 ± 0.03, the ΔG result is “–9.75 ± 0.13 kcal·mol^–1”, the ΔH entry was “–8.79 ± 0.42 kcal·mol^–1” and the “–TΔS” value is “–0.96 ± 0.29 kcal·mol^–1”. For the same compound, at Brd4^BD2, the “stoichiometry N” value came to 0.79 ± 0.03, the ΔG entry is given as “–10.3 ± 0.04 kcal·mol^–1”, the ΔH entry was “–10.6 ± 0.5 kcal·mol^–1” and the “–TΔS” value is 0.31 ± 0.53 kcal·mol^–1. For the same compound, the EC50 in the test on MV4;11 cells was 123 nM. In addition, in test [2], the α came to 4.7, the “cooperativity (α) Brd4–BD2” value turned out to be 4.7, the “ΔpKd ± uncertainty” value was 0.66 ± 0.10 and the “stoichiometry N” value worked out at 0.76 ± 0.07. Further, in test [2], the ΔG entry is “–10.7 ± 0.05 kcal·mol^–1”, the ΔH result is “–10.6 ± 1.3 kcal·mol^–1” and the “–TΔS” value was “–0.07 ± 1.3 kcal·mol^–1”.
`CC(=O)N1c2ccc(-c3ccc(C(=O)NCCOCCOCC(=O)N[C@H](C(=O)N4C[C@H](O)C[C@H]4C(=O)NCc4ccc(-c5scnc5C)cc4)C(C)(C)C)cc3)cc2[C@H](Nc2ccc(Cl)cc2)C[C@@H]1C` [compound 8, (2S,4R)-1-((S)-1-(4-((2S,4R)-1-Acetyl-4-((4-chlorophenyl)amino)-2-methyl-1,2,3,4-tetrahydroquinolin-6-yl)phenyl)-12-(tert-butyl)-1,10-dioxo-5,8-dioxa-2,11-diazatridecan-13-oyl)-4-hydroxy-N-(4-(4-methylthiazol-5-yl)benzyl)pyrrolidine-2-carboxamide]: at Brd4 [3], the “Brd4 depletion (%) HL60” value was “–156%”. For the same compound, in test [1], the “stoichiometry N” value amounted to 1.12 ± 0.01, the ΔG entry was “–9.46 ± 0.13 kcal·mol^–1”, the ΔH result was “–4.07 ± 0.07 kcal·mol^–1” and the “–TΔS” value was “–5.39 ± 0.14 kcal·mol^–1”. In addition, at Brd4^BD2, the “stoichiometry N” value came out at 0.804 ± 0.003, the ΔG result is recorded as “–11.7 ± 0.4 kcal·mol^–1”, the ΔH result was “–10.0 ± 0.1 kcal·mol^–1” and the “–TΔS” value is “–1.71 ± 0.43 kcal·mol^–1”. Further, the “cMyc depletion (%) MV4;11” value in the test with cMyc was 11/11%. Moreover, the “Brd4 depletion (%) MV4;11” value on Brd4 [4] is reported as 11/11%. Further, in test [2], the α is on record as 0.2, the “cooperativity (α) Brd4–BD2” value is 0.15, the “ΔpKd ± uncertainty” value is on record as “–0.83 ± 0.10” and the “stoichiometry N” value is 1.07 ± 0.01. For the same compound, in test [2], the ΔG entry is recorded as “–8.33 ± 0.05 kcal·mol^–1”, the ΔH entry is recorded as “–7.02 ± 0.11 kcal·mol^–1” and the “–TΔS” value was “–1.31 ± 0.12 kcal·mol^–1”.
